{
  "source": "patent US7922998B2",
  "about": "“Gastrin releasing peptide compounds” (Bracco Imaging S.p.A., priority 2003, dated 2011)",
  "key": {"NMB-R": {"target": "T1, NMB-R (Rattus norvegicus, UniProt P24053)", "T1 construct": "C6, an NMB-R expressing rodent glioblastoma cell line; host or cells: C6 glioma cells, intact and plated", "T1 sequence (P24053 1-390)": "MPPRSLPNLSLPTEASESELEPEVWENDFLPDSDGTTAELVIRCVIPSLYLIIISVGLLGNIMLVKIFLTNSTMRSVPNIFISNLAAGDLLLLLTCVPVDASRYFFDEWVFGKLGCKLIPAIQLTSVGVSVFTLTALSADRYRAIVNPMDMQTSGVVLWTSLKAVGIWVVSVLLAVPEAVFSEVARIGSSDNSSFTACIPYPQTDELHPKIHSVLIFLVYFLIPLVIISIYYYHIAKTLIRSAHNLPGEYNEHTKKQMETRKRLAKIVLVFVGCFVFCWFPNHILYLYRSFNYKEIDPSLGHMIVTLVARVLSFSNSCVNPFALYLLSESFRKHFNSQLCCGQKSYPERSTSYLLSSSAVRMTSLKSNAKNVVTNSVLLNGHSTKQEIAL", "experiment": "Competition with 125I-NMB for NMB-R in C6 cells (Example LX)", "format": "binding, rodent", "details": "for receptor subtype preference (GRP-R / NMB-R): in words, from IC50 with 125I-NMB (C6) and 125I-BBN (PC3), cut off 10× the IC50 of [Tyr4]-BBN", "description": "Two cell lines, C6, an NMB-R expressing rodent glioblastoma cell line and PC3, a GRP-R expressing human prostate cancer cell line, were used in this assay. The affinity of various unlabeled compounds for each receptor subtype (NMB-R and GRP-R) was determined indirectly by measuring its ability to compete with the binding of ^125I-NMB or ^125I-BBN to its corresponding receptors in C6 and PC3 cells.\nCells for the assays were plated at a concentration of 9.6×10^4/well in 48 well poly-lysine coated plates (Beckton Dickinson Biocoat).\n• Custom made ^125I-[Tyr^0]NMB, >2.0 Ci/μmole (Amersham Life Science) [^125I-NMB] and commercially available ^125I-[Tyr^4]BBN, >2.0 Ci/μmole (Perkin Elmer Life Science) [^125I-BBN] were used as radioligands.\n• Using a 48-well plate assay system (for C6 study) competition experiments were performed using ^125I-NMB. […] Selection of compounds for the assay was based on linker subtype.\nThe binding parameters obtained from the studies were analyzed using a one-site competition non-linear regression analysis with GraphPad Prism. The relative affinity of various compounds for NMB-R in C6 cells were compared with those obtained using commercially available [Tyr^4]-BBN and [Tyr^0]-NMB. To distinguish the GRP-R preferring compounds from NMB-R plus GRP-R preferring compounds, IC50 values obtained for each compound was compared with those obtained from [Tyr^0]-BBN with ^125I-NMB on C6 cells."}, "[1]": {"test_system": "PC3 tumor-bearing nude mouse model", "experiment": "Radiotherapy Short Term Efficacy Study", "format": "in vivo", "procedure": "• Radiotherapy studies were performed using the PC3 tumor-bearing nude mouse model. […] (n=12 for each treatment group for up to 30 days, and n=36 for the pooled untreated control group for up to 31 days). […] The subjects were housed in a barrier environment for the duration of the study. Body weight and tumor size (by caliper measurement) were collected on each subject 3 times per week for the duration of the study. Criteria for early termination included: death; loss of total body weight (TBW) equal to or greater than 20%; tumor size equal to or greater than 2 cm^3."}, "PC3 cells": {"test_system": "PC3 cells", "experiment": "Internalization & Efflux Assay in PC3 cells", "format": "cell-based, human", "details": "for Internalisation (40 minutes): 40 min at 37° C., Lu-177 complexes (125I-BBN as comparator); for Efflux (2 h): percent efflux 2 h after loading 40 min at 37° C., Lu-177 complexes", "description": "• These studies were conducted in a 96-well plate. […] Incubations were stopped by the addition of 200 μl of ice-cold binding buffer. Plates were washed twice with binding buffer. To remove surface-bound radioligand, the cells were incubated with 0.2M acetic acid (in saline), pH 2.8 for 2 min. Plates were centrifuged and the acid wash media were collected to determine the amount of radioactivity which was not internalized. The cells were collected to determine the amount of internalized ^125I-BBN, and all samples were analyzed in the gamma counter. Data for the internalization assay was normalized by comparing counts obtained at the various time points with the counts obtained at the final time point (T40 min). • For the efflux studies, after loading the PC3 cells with ^125I-BBN or radiolabeled compounds of the invention for 40 min at 37° C., the unbound material was filtered, and the % of internalization was determined as above. The cells were then resuspended in binding buffer at 37° C. for up to 3 h."}, "[2]": {"test_system": "PC3 tumor-bearing nude mice", "format": "in vivo, mouse", "details": "in words; for uptake in the tumor compared with control: 1 and 24 h", "description": "• Low dose pharmacokinetic studies (e.g., biodistribution studies) were performed using the below-identified compounds of the invention in xenografted, PC3 tumor-bearing nude mice ([Ncr]-Foxn1). In all studies, mice were administered 100 μL of ^177Lu-labeled test compound at 200 μCi/kg, i.v., with a residence time of 1 and 24 h per group (n=3-4). Tissues were analyzed in an LKB 1282 CompuGamma counter with appropriate standards."}, "GRP-R": {"target": "T2, GRP-R (Homo sapiens, UniProt P30550)", "T2 construct": "host or cells: PC3 human prostate cancer cells, intact and plated", "T2 sequence (P30550 whole entry)": "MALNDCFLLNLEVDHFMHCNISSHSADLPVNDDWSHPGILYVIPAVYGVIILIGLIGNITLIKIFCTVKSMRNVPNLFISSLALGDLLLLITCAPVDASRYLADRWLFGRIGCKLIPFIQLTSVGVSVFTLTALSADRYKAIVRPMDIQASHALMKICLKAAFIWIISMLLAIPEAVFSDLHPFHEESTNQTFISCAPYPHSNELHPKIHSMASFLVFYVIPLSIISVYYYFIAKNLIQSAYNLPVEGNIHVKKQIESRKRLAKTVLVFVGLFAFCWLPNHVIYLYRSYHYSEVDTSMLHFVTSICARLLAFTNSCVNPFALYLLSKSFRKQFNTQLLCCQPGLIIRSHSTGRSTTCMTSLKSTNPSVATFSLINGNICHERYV", "experiment": "Competition assay of modified BBN analogs with 125I-BBN for GRP-R in PC3 cells (Example LXI)", "format": "binding", "details": "in words", "description": "• PC3 cell lines were obtained from ATCC(CRL-1435) and cultured in RPMI 1640 (ATCC) supplemented with 2 mM L-glutamine, 1.5 g/L Sodium bicarbonate, 10 mM HEPES and 10% FBS. […] PC3 cells for the assays were plated at a concentration of 2.0×10^4 cells/well in a 96-well white/clear bottom plates (Falcon Optilux-I). Plates were used for the assays on day 2 of the post-plating.\n• RPMI 1640 (ATCC) containing 25 mM HEPES, 0.2% BSA fraction V, 1.0 mM AEBSF (CAS #3087-99-7) and 0.1% Bacitracin (CAS #1405-87-4), pH 7.4.\n• ^125I-BBN (Cat # NEX258) was obtained from PerkinElmer Life Sciences.\n• All compounds tested were dissolved in binding buffer and appropriate dilutions were also done in binding buffer. PC3 cells for assay were seeded at a concentration of 2.0×10^4/well either in 96-well black/clear collagen I cellware plates (Beckton Dickinson Biocoat). Plates were used for binding studies on day 2 post-plating. The plates were checked for confluency (>90% confluent) prior to assay. […] The studies were conducted with an assay volume of 75 μl per well. Triplicate wells were used for each data point. After the addition of the appropriate solutions, plates were incubated for 1 hour at 4° C. Incubation was ended by the addition of 200 uL of ice-cold incubation buffer. Plates were washed 5 times and blotted dry. Radioactivity was detected using either a LKB CompuGamma counter or a microplate scintillation counter."}, "[3]": {"test_system": "PC3 tumor-bearing nude mouse model", "experiment": "Radiotherapy Long Term Efficacy Study", "format": "in vivo", "details": "177Lu labeled, 30 mCi/kg, up to 120 days; vs same controls; FIG. 15B"}, "[4]": {"details": "Table 10, class cut off 10x the IC50 of [Tyr4]-BBN with 125I-NMB on C6 cells, yes or dash"}, "[5]": {"details": "177Lu labeled, 30 mCi/kg, up to 30 days, vs untreated and vs DO3A-monoamide-Aoc-QWAVGHLM-NH2 control, FIG. 15A"}},
  "note": "“Also recorded” adds a separate entry of the source.",
  "data": [
    {"compound": "N-[4-[[[[4,7,10-Tris(carboxymethyl)-1,4,7,10tetraazacyclododec-1-yl]acetyl]glycyl]amino]3-chlorobenzoyl]L-glutaminyl-L-tryptophyl-1-alanyl-L-valyl-glycyl-L-histidyl-L-leucyl-L-methioninamide [Compound L241]", "values": [
      {"measurement": "GRP-R & NMB-R (binds both with similar affinity)", "setting": "NMB-R; [4]", "value": "yes"}
    ]},
    {"compound": "DO3A-monoamide-N-4-aminoethyl-N-1-piperazineacetic acid-BBN(7-14) [Compound L89]", "values": [
      {"measurement": "GRP-R (preferentially binds GRP-R)", "setting": "NMB-R; [4]", "value": "yes"},
      {"measurement": "receptor subtype preference (GRP-R / NMB-R)", "setting": "NMB-R", "value": "GRP-R selectivity"}
    ]},
    {"compound": "N-[(3β,5β,12α)-3-[[[4,7,10-Tris(carboxymethyl)-1,4,7,10-tetraazacyclododec-1-yl]acetyl]amino]-4-aminobenzoyl-glycyl-L-glutaminyl-L-tryptophyl-L-alanyl-L-valyl-glycyl-L-histidyl-L-leucyl-L-methioninamide [Compound L204]", "values": [
      {"measurement": "Receptor preference in words (cell spanning the GRP-R and GRP-R & NMB-R columns)", "setting": "NMB-R; Table 10", "value": "preference to NMB-R"},
      {"measurement": "GRP-R & NMB-R (binds both with similar affinity)", "setting": "NMB-R; [4]", "value": "yes"},
      {"measurement": "receptor subtype preference (GRP-R / NMB-R)", "setting": "NMB-R", "value": "selective affinity to NMB-R; also recorded: favor the NMB subtype"}
    ]},
    {"compound": "N-[4-[[[[4,7,10-Tris(carboxymethyl)-1,4,7,10tetraazacyclododec-1-yl]acetyl]glycyl]amino]-3-methoxybenzoyl]-L-glutaminyl-L-tryptophyl-1-alanyl-L-valyl-glycyl-L-histidyl-L-leucyl-L-methioninamide [Compound L240]", "values": [
      {"measurement": "receptor subtype preference (GRP-R / NMB-R)", "setting": "NMB-R", "value": "selective affinity to GRP-R"}
    ]},
    {"compound": "N,N-dimethylglycine-Ser-Cys(Acm)-Gly-N-4-aminoethyl-N-1-piperazineacetic acid-Ser-BBN(7-14) [Compound L28]", "values": [
      {"measurement": "GRP-R & NMB-R (binds both with similar affinity)", "setting": "NMB-R; [4]", "value": "yes"}
    ]},
    {"compound": "CSCC[C@H](NC(=O)[C@H](CC(C)C)NC(=O)[C@H](Cc1c[nH]cn1)NC(=O)CNC(=O)[C@@H](NC(=O)[C@H](C)NC(=O)[C@H](Cc1c[nH]c2ccccc12)NC(=O)[C@H](CCC(N)=O)NC(=O)CC[C@@H](C)[C@H]1CC[C@H]2[C@@H]3CC[C@@H]4C[C@@H](NC(=O)CNC(=O)CN5CCN(CC(=O)O)CCN(CC(=O)O)CCN(CC(=O)O)CC5)CC[C@]4(C)[C@H]3C[C@H](O)[C@]12C)C(C)C)C(N)=O", "note": "[Compound L63, N-[(3β,5β,12α)-3-[[[[[4,7,10-Tris(carboxymethyl)-1,4,7,10-tetraazacyclododec-1-yl]acetyl]amino]acetyl]amino]-12-hydroxy-24-oxocholan-24-yl]-L-glutaminyl-L-tryptophyl-L-alanyl-L-valyl-glycyl-L-histidyl-L-leucyl-L-methioninamide]", "values": [
      {"measurement": "survival", "setting": "[1]; [5]", "value": "increased survival"},
      {"measurement": "Internalisation (40 minutes)", "setting": "PC3 cells", "value": 64, "unit": "%"},
      {"measurement": "Efflux (2 h)", "setting": "PC3 cells", "value": 0, "unit": "%"},
      {"measurement": "uptake in the mouse pancreas compared with control", "setting": "[2]", "value": "much higher"},
      {"measurement": "uptake in the tumor compared with control", "setting": "[2]", "value": "high tumour uptake"},
      {"measurement": "distribution of radioactivity in the blood, liver and kidneys compared with control", "setting": "[2]; vs DO3A-monoamide-Aoc-QWAVGHLM-NH2", "value": "increased blood and liver values at early times"},
      {"measurement": "GRP-R & NMB-R (binds both with similar affinity)", "setting": "NMB-R; [4]", "value": "yes"},
      {"measurement": "receptor subtype preference (GRP-R / NMB-R)", "setting": "NMB-R", "value": "dual affinity for both GRP-R and NMB-R"}
    ]},
    {"compound": "DO3A-monoamide-8-amino-octanoic acid-BBN (7-14) [reference compound]", "values": [
      {"measurement": "Internalisation (40 minutes)", "setting": "PC3 cells", "value": 89, "unit": "%"},
      {"measurement": "Efflux (2 h)", "setting": "PC3 cells", "value": 28, "unit": "%"}
    ]},
    {"compound": "N-[(3β,5β,12α)-3-[[[[[4,7,10-Tris(carboxymethyl)-1,4,7,10-tetraazacyclododec-1-yl]acetyl]amino]acetyl]amino]-4-hydrazinobenzoyl-L-glutaminyl-L-tryptophyl-L-alanyl-L-valyl-glycyl-L-histidyl-L-leucyl-L-methioninamide [Compound L202]", "values": [
      {"measurement": "GRP-R & NMB-R (binds both with similar affinity)", "setting": "NMB-R; [4]", "value": "yes"}
    ]},
    {"compound": "N,N-dimethylglycine-Ser-Cys(Acm)-Gly-Asp-8-amino-3,6-dioxaoctanoic acid-BBN(7-14) [Compound L3]", "values": [
      {"measurement": "GRP-R & NMB-R (binds both with similar affinity)", "setting": "NMB-R; [4]", "value": "yes"}
    ]},
    {"compound": "N,N-dimethylglycine-Ser-Cys(Acm)-Gly-N-1-piperazineacetic acid-8-amino-3,6-dioxaoctanoic acid-BBN(7-14) [Compound L36]", "values": [
      {"measurement": "GRP-R & NMB-R (binds both with similar affinity)", "setting": "NMB-R; [4]", "value": "yes"}
    ]},
    {"compound": "N-[(3β,5β,12α)-3-[[[4,7,10-Tris(carboxymethyl)-1,4,7,10-tetraazacyclododec-1-yl]acetyl]amino]-glycyl-4-aminobenzoyl-L-leucyl-L-tryptophyl-L-alanyl-L-valinyl-glycyl-L-serinyl-L-phenylalanyl-L-methioninamide [Compound L225]", "values": [
      {"measurement": "competition / activity at GRP-R", "setting": "GRP-R", "value": "reduces competition at the GRP-R"}
    ]},
    {"compound": "N-[(3β,5β,12α)-3-[[[4,7,10-Tris(carboxymethyl)-1,4,7,10-tetraazacyclododec-1-yl]acetyl]amino]-glycyl-4-aminobenzoyl-L-glutaminyl-L-tryptophyl-L-alanyl-L-valyl-glycyl-L-histidyl-L-phenylalanyl-L-methioninamide [Compound L228]", "values": [
      {"measurement": "competition / activity at GRP-R", "setting": "GRP-R", "value": "maintains GRP-R activity"}
    ]},
    {"compound": "N-[4-[[[[[4,7,10-Tris(carboxymethyl)-1,4,7,10-tetraazacyclododec-1-yl]acetyl]amino]acetyl]amino]benzoyl]-L-glutaminyl-L-tryptophyl-L-alanyl-L-valyl-glycyl-L-histidyl-L-leucyl-L-methioninamide [Compound L70]", "values": [
      {"measurement": "survival", "setting": "[1]; mouse, in vivo", "value": "increased survival"},
      {"measurement": "Internalisation (40 minutes)", "setting": "PC3 cells", "value": 70, "unit": "%"},
      {"measurement": "Efflux (2 h)", "setting": "PC3 cells", "value": 12, "unit": "%"},
      {"measurement": "survival", "setting": "[3]", "value": "significantly increased survival"},
      {"measurement": "GRP-R & NMB-R (binds both with similar affinity)", "setting": "NMB-R; [4]", "value": "yes"},
      {"measurement": "receptor subtype preference (GRP-R / NMB-R)", "setting": "NMB-R", "value": "dual affinity"}
    ]},
    {"compound": "N-[(3β,5β,12α)-3-[[[4,7,10-Tris(carboxymethyl)-1,4,7,10-tetraazacyclododec-1-yl]acetyl]amino]-glycyl-4-aminobenzoyl-L-glutaminyl-L-tryptophyl-L-alanyl-glycyl-L-histidyl-L-phenylalanyl-L-leucinamide [Compound L224]", "values": [
      {"measurement": "competition / activity at GRP-R", "setting": "GRP-R", "value": "complete loss of binding"}
    ]},
    {"compound": "N-[[4,7,10-Tris(carboxymethyl)-1,4,7,10-tetraazacyclododec-1-yl]acetyl]glycyl-4-piperidinecarbonyl-L-glutaminyl-L-tryptophyl-L-alanyl-L-valyl-glycyl-L-histidyl-L-leucyl-L-methioninamide [Compound L74]", "values": [
      {"measurement": "GRP-R & NMB-R (binds both with similar affinity)", "setting": "NMB-R; [4]", "value": "yes"}
    ]},
    {"compound": "N-[(3β,5β,12α)-3-[[[[[4,7,10-Tris(carboxymethyl)-1,4,7,10-tetraazacyclododec-1-yl]acetyl]amino]acetyl]amino]-[4′-Amino-2′-methyl biphenyl-4-carboxyl]-L-glutaminyl-L-tryptophyl-L-alanyl-L-valyl-glycyl-L-histidyl-L-leucyl-L-methioninamide [Compound L206]", "values": [
      {"measurement": "GRP-R & NMB-R (binds both with similar affinity)", "setting": "NMB-R; [4]", "value": "yes"}
    ]},
    {"compound": "CSCC[C@H](NC(=O)[C@H](CC(C)C)NC(=O)[C@H](Cc1c[nH]cn1)NC(=O)CNC(=O)[C@@H](NC(=O)[C@H](C)NC(=O)[C@H](Cc1c[nH]c2ccccc12)NC(=O)[C@H](CCC(N)=O)NC(=O)CC[C@@H](C)[C@H]1CC[C@H]2[C@@H]3[C@H](O)C[C@@H]4C[C@@H](NC(=O)CNC(=O)CN5CCN(CC(=O)O)CCN(CC(=O)O)CCN(CC(=O)O)CC5)CC[C@]4(C)[C@H]3C[C@H](O)[C@]12C)C(C)C)C(N)=O", "note": "[Compound L64, N-[(3β,5β,7α,12α)-3-[[[[[4,7,10-Tris(carboxymethyl)-1,4,7,10-tetraazacyclododec-1-yl]acetyl]amino]acetyl]amino]-7,12-dihydroxy-24-oxocholan-24-yl]-L-glutaminyl-L-tryptophyl-L-alanyl-L-valyl-glycyl-L-histidyl-L-leucyl-L-methioninamide]", "values": [
      {"measurement": "survival", "setting": "[1]; [5]", "value": "increased survival"},
      {"measurement": "Internalisation (40 minutes)", "setting": "PC3 cells", "value": 69, "unit": "%"},
      {"measurement": "Efflux (2 h)", "setting": "PC3 cells", "value": 20, "unit": "%"},
      {"measurement": "survival", "setting": "[3]", "value": "significantly increased survival"},
      {"measurement": "uptake in the mouse pancreas compared with control", "setting": "[2]", "value": "much higher"},
      {"measurement": "uptake in the tumor compared with control", "setting": "[2]", "value": "much higher"},
      {"measurement": "GRP-R & NMB-R (binds both with similar affinity)", "setting": "NMB-R; [4]", "value": "yes"},
      {"measurement": "receptor subtype preference (GRP-R / NMB-R)", "setting": "NMB-R", "value": "dual affinity for both GRP-R and NMB-R"}
    ]},
    {"compound": "DO3A-Gly-Abz-4-Gln-Trp-Ala-Val-Gly-His-Phe-Leu-NH2 [Compound L300]", "values": [
      {"measurement": "competition / activity at GRP-R", "setting": "GRP-R", "value": "high activity at the GRP-R"}
    ]}
  ]
}
